This note sets out measurements from patent US10399931B2, “Octahydroanthracene compound, preparation method and application thereof” (SHANDONG XINHUA PHARMACEUTICAL CO., LTD., priority 2016, dated 2019).

SMILES strings stand for the structures. Where two headings read alike, the source gives them in different places.

In data set [1] the test system is APP/PS1 transgenic mice. As to the kind of experiment: Nesting experiment. The format is in vivo. Particulars: 100 mg/kg, at 12 h. The text has this: Each mouse was separately housed in a cage. On the first day of the test, two pieces of cotton (5 cm×5 cm) were placed in the cage. […]
Data set [2] concerns Human leukemia HL60 cells. As to the kind of experiment: MTT assay, proliferation of human leukemia HL60 cells. The format is cell-based. Conditions: for IC50: read-out: IC50 against HL60 cells. How it is done:
(§1) The survival rate of cells was determined by MTT assay, which is based on the metabolic reduction of 3-(4,5-dimethyl-2thiahiazoyl)-3,5-di-phenyl-tetrazolium bromide (MTT) by viable cells. MTT is a yellow compound, a dye that accepts hydrogen ion, which can act on the respiratory chain in the mitochondria of viable cells. Under the action of succinate dehydrogenase and cytochrome C, the tetrazolium ring was cleaved to form blue Formazan crystals, and the amount of Formazan crystals generated was only proportional to the number of the viable cells. The enzymes disappeared in dead cells, so Formazan crystals could not be dissolved in MTT solution containing 20% sodium dodecyl sulfate (pH 4.7).
(§2) The cells in the logarithmic growth phase were selected and adjusted to an appropriate cell density, seeded in a 96-well plate, 100 μl/well, and cultured in a 37° C., 5% CO2 incubator. The cells were allowed to adhere overnight, then the culture medium was replaced and the drug was added to cultivate for 48 h. A blank control group, a drug administration group and a positive control group were set, with four repeats in each group.
(§3) After 48 h of drug treatment, the cells were incubated with 0.25 mg/ml MTT at 37° C. for 3-4 h, and 100 μl of dimethyl sulfoxide (DMSO) was added to each well after aspirating the culture solution.

For data set [3], the system named is APP/PS1 transgenic mice. Nature of the data set: Morris water maze test (oriented navigation and probe test). The format is in vivo. Conditions: 100 mg/kg. How it is done:
The drugs were administered three days after the adaptive feeding. Peanut oil was used as the solvent. The drug was intragastric administered once a day for 15 days. On the 6th to 9th day after the administration, the new object identification test was performed. On the 10th day, the Y-maze test was performed. On the 11th to 15th day, the Morris water maze test was performed to determine the improvement of learning and memory. The administration of the drugs was continued during the behavioral experiment until the animals were sacrificed (16th day).
The experimental device includes a black circular pool with a diameter of 100 cm and a height of 40 cm, and a white platform (safe platform) having a diameter of about 10 cm. The location of the safe platform could be moved. Morris Water Maze Video Detection and Analysis System was provided by the Institute of Materia Medica, China Academy of Medical Sciences. One day before the experiment, water was injected into the black circular pool (water temperature 22±1° C.), and white pigment was added to mix uniformly. The water surface was usually about 1 cm higher than the top of the safe platform. The pool was divided into four quadrants I, II, III and IV, and the safe platform was usually placed in the middle of the quadrant IV. The experiment was divided into two parts: (1) Oriented navigation: the animal grouping was input into a computer software in advance. The position of the safe platform was kept unchanged during the experiment. During the test, the experimental animal facing the pool wall was placed in the water from different inlets, and the computer simultaneously collected data and recorded the time to find the safe platform (escape latency). Data collection automatically stopped when the animal stayed on the safe platform for 10 s. The data acquisition time of the mouse was 60 s. If the animal could not find the safe platform within the specified time, the escape latency was recorded as 60 s. At the same time, the operator induced the animal to reach the safe platform and stay for 10 s. The animal was trained twice a day for 4 consecutive days. (2) Probe test: after the oriented navigation test is completed, the safe platform is removed and the animal was placed in the pool free to explore for 60 s. The camera system automatically recorded the time and distance of the experimental animal swimming in the quadrant of the safe platform within the specified time and the number of times passing through the location of the safe platform.

For data set [4], the system named is Human cutaneous T-cell lymphoma Hut102 cells. As to the kind of experiment: MTT assay, proliferation of human cutaneous T-cell lymphoma Hut102 cells. The format is cell-based. As to the method: as §1, §2, §3
The subject of a further data set is RXR. Nature of the data set: Verification of RXR target, dual-luciferase reporter in transfected 293T cells. The format is cell-based, Human. Conditions: 20 nM, 48 h; for Relative activity (RXR): relative to CON = 1; for Flu (firefly luciferase signal) / Flu/Rlu / Rlu (Renilla luciferase signal): transfected 293T cells. For orientation: A reporter such as luciferase makes a cellular process visible.

In the next data set the test system is HDAC. Nature of the data set: Verification of HDAC target, HDAC fluorometric activity assay on A549 cell lysate. Particulars: 20 μM, Mean.
Setting [5] is: Homo sapiens, HL-60, read-out: Inhibitive rate (%) against HL60 cells.
The mark [6] stands for this setting: Homo sapiens, HL-60, 0.01 μmol/L, Mean ± SE, read-out: Inhibitive rate (%) against HL60 cells.
The mark [7] stands for this setting: Homo sapiens, HL-60, 0.1 μmol/L, Mean ± SE, read-out: Inhibitive rate (%) against HL60 cells.
[8] abbreviates: Homo sapiens, HL-60, 1 μmol/L, Mean ± SE, read-out: Inhibitive rate (%) against HL60 cells.
Where [9] appears, read: Homo sapiens, HL-60, 10 μmol/L (rescreening), Mean ± SE, read-out: Inhibitive rate (%) against HL60 cells.
[10] abbreviates: Homo sapiens, HL-60, 48 h, 10 μM, 48 h, Mean ± SE, read-out: Inhibitive rate (%) against HL60 cells.
Where [11] appears, read: Homo sapiens, HL-60, 48 h, MTT, 48 h.
Setting [12] is: HuT-102, 10 μM, Mean ± SE, read-out: Inhibitive rate (%) against Hut102 cells.

In general, IC50 refers to the midpoint of a concentration-inhibition curve. Usually melting point stands for the temperature, or range, at which the solid turns liquid.

Protocol for HDAC: All the compounds were prepared into mother liquors with the same concentration (100 mmol/L) and stored at a temperature of −20° C. […] The DMSO sample was tested at a final concentration of 1%.
A substrate containing an acetylated lysine chain was added to the sample (cell lysate buffer), and the active HDAC in the sample deacetylated the lysine chain on the substrate to activate the substrate. Further, a lysine luminescent reagent is added to generate fluorescence, and the signal was recorded by a microplate reader to indicate the activity of HDAC in the sample.
2) Detection Method • a) Dissolving 50 μg untreated A549 cell lysate in 85 μL (final volume) ddH2O. For the positive blank group, adding 2 μL HeLA nuclear extract first, following by adding 83 μL ddH2O. In the negative blank group, by adding 2 μL Trichostatin A and 83 μL ddH2O. • b) Adding 10 μL 10× buffer to each well. • c) Adding 5 μL HDAC fluorogenic substrate to each well, and adding the drug to make the final concentration reach the set concentration, mixing well, and incubating at 37° C. for 30 min. • d) Adding 10 μL lysine developer, mixing well, then stopping the reaction, incubating for 30 min at 37° C. • e) Detecting the fluorescence value by the microplate reader (condition: emission wavelength/excitation wavelength is 350-380/440-460 nm).

As for `C=C(c1ccc(C(=O)O)cc1)c1cc2c(cc1C)C(C)(C)CCC2(C)C` [BEXA, bexarotene, reference compound], the “Nesting ability vs model group” value in the data set on APP/PS1 transgenic mice [1] is given as “significantly increased”. Moreover, the IC50 in data set [2] (Homo sapiens, HL-60, 48 h) was 6.31 ± 0.7 µM. Besides, the inhibition at 10 µM in data set [2] (Homo sapiens, HL-60, 48 h, read-out: Inhibitive rate (%) against HL60 cells) came to 4 ± 1.14%. Moreover, in data set [2] (setting [5]), the inhibition at 0.01 µM was 16.5 ± 1.66%, the inhibition at 0.1 µM was determined as 15.1 ± 1.44%, the inhibition at 1 µM is 65.5 ± 1.72% and the inhibition at 10 µM is 80.88 ± 0.63%. The “Escape latency vs model group” value with APP/PS1 transgenic mice [3] (third and fourth days of training) is given as “significantly reduced”. Moreover, in the data set on APP/PS1 transgenic mice [3] (probe test), the “Number of times traversing the safe platform vs model group” value was “significantly increased”, the “Percentage of the swimming distance in the target quadrant vs model group” value is given as “significantly increased” and the “Swimming time in the target quadrant vs model group” value is on record as “significantly increased”. In addition, in data set [4] (HuT-102, read-out: Inhibitive rate (%) against Hut102 cells), the inhibition at 10 µM is 6.41 ± 4.1%.

For `CC1(C)CCC(C)(C)c2c1cc1c(c2NC(=O)c2ccc(C(=O)NCCN)cc2)C(C)(C)CCC1(C)C` [OAA-6, N-(2-amino) ethyl-4-[(1,1,4,4,5,5,8,8-octamethyl-1,2,3,4,5,6,7,8-octahydro-9-anthryl)carbamoyl] benzamide], the inhibition at 0.01 µM in data set [2] (setting [6]) came out at 1.2 ± 0.27%. Moreover, the inhibition at 0.1 µM in data set [2] (setting [7]) came out at 13.4 ± 1.5%. In addition, the inhibition at 1 µM in data set [2] (setting [8]) came out at 76.73 ± 0.07%. In addition, the inhibition at 10 µM in data set [2] (setting [9]) was determined as 79.74 ± 0.46%. In data set [2] (setting [10]), the inhibition at 10 µM was above 50%. In data set [2] (setting [11]), the IC50 is below 10 µM. Besides, in data set [2] (MTT, 48 h), the IC50 was determined as 5.63 ± 1.14 µM. In the data set with RXR, the “Relative activity (RXR)” value came to 1.47, the “Flu (firefly luciferase signal)” value is on record as 452598, the Flu/Rlu was 2.59 and the “Rlu (Renilla luciferase signal)” value is 174827. For the same compound, the inhibition at 10 µM in data set [4] (setting [12]) was 23.9 ± 1.03%. In the data set on HDAC, the “Inhibitive rate of HDAC activity of A549 cells” value (“Inhibitive rate” below) was −11.07%.

Turning to `CCN(CC)CCNC(=O)Nc1ccc(C(=O)Nc2c3c(cc4c2C(C)(C)CCC4(C)C)C(C)(C)CCC3(C)C)cc1` [OAB-12, 1-[2-(N,N-diethylamino)]ethyl-3-{4-[(1,1,4,4,5,5,8,8-octamethyl-1,2,3,4,5,6,7,8-octahydro-9-anthryl)carbamoyl]phenyl} urea], in data set [2] (setting [6]), the inhibition at 0.01 µM was determined as 8.96 ± 1.45%. For the same compound, in data set [2] (setting [7]), the inhibition at 0.1 µM was 11.8 ± 1.33%. For the same compound, the inhibition at 1 µM in data set [2] (setting [8]) was determined as 73 ± 1.31%. Also, in data set [2] (setting [9]), the inhibition at 10 µM turned out to be 78.94 ± 0.42%. Moreover, in the data set with RXR, the “Relative activity (RXR)” value was found to be 0.85, the “Flu (firefly luciferase signal)” value was found to be 4013, the Flu/Rlu is 1.49 and the “Rlu (Renilla luciferase signal)” value was 2686. Besides, the inhibition at 10 µM in data set [4] (setting [12]) is 43.7 ± 3.98%. In addition, in the data set with HDAC, the “Inhibitive rate” value came out at 4.17%.

As to `CN(C)CCNC(=O)Nc1ccc(C(=O)Nc2c3c(cc4c2C(C)(C)CCC4(C)C)C(C)(C)CCC3(C)C)cc1` [OAB-13, 1-[2-(N,N-dimethylamino)]ethyl-3-{4-[(1,1,4,4,5,5,8,8-octamethyl-1,2,3,4,5,6,7,8-octahydro-9-anthryl)carbamoyl]phenyl} urea], the inhibition at 0.01 µM in data set [2] (setting [6]) was 12.6 ± 0.7%. For the same compound, the inhibition at 0.1 µM in data set [2] (setting [7]) is 11.4 ± 0.88%. Also, the inhibition at 1 µM in data set [2] (setting [8]) stood at 53.3 ± 1.22%. The inhibition at 10 µM in data set [2] (setting [9]) amounted to 79.93 ± 0.16%. In addition, the IC50 in data set [2] (setting [11]) was below 10 µM. Also, in data set [2] (MTT, 48 h), the IC50 was 6.65 ± 2.93 µM. In the data set on RXR, the “Relative activity (RXR)” value came to 1.11, the “Flu (firefly luciferase signal)” value worked out at 76228, the Flu/Rlu worked out at 1.95 and the “Rlu (Renilla luciferase signal)” value was 39025. The inhibition at 10 µM in data set [4] (setting [12]) was found to be 39.8 ± 0.81%. Besides, the “Inhibitive rate” value in the data set on HDAC amounted to 3.19%.

Regarding `CC1(C)CCC(C)(C)c2c1cc1c(c2NC(=O)c2ccc(NC(=O)NCCO)cc2)C(C)(C)CCC1(C)C` [OAB-17, 1-(2-hydroxy) ethyl-3-{4-[(1,1,4,4,5,5,8,8-octamethyl-1,2,3,4,5,6,7,8-octahydro-9-anthryl)carbamoyl]phenyl} urea], the melting point fell in the range of 284 to 287 °C. Besides, in data set [2] (setting [10]), the inhibition at 10 µM was determined as 33.6 ± 0.7%. Besides, in data set [4] (setting [12]), the inhibition at 10 µM turned out to be 9.22 ± 1.29%.
